# Measured values from patent US20080221134A1, “8-ALKYNYLXANTHINES AND DERIVATIVES” (priority 2006, published 2008).
# “Also recorded” adds a separate entry of the source.
# What was measured:
# [1] = system: CGS-21680 induced catalepsy; test: Acute CGS-21680 induced catalepsy test; type: in vivo, rat; conditions: for effect on catalepsy time in acute CGS-21680 induced catalepsy model: i.p. in DMSO, 0.1-10 mg/kg
# Procedure: (§1) Animals were administered with Reserpine or CGS-21680 according to methods known to the skilled person in the art. These models and procedures are e.g. described by Ferré S. et al., Neurosci. Let., 1991, 130, 162; Ferré S. et al., Neuroscience, 1992, 51, 501; Kafka S. H. et al., Eur. J. Pharmacol., 1996, 295, 147; Rimondini R. et al., Neuropsychopharmacology, 1997, 17, 82 and are herein incorporated by reference. In the acute CGS-21680 induced catalepsy model (CGS model) the test compounds (TC, compounds according to the present invention) and CGS-21680 (i.p. 2 mg/kg) were administered 60 minutes before the start of the catalepsy bar measurement and behavioural testing described below (see also FIG. 1). In the acute Reserpine induced catalepsy model (RES model Resperine (subcutaneously, 3 mg/kg) was injected 24 h prior to the test compound application. Catalepsy bar measurement took place 60 minutes after test compound application (see FIG. 1). Test compounds were administered i.p. in DMSO in following doses (mg/kg): 0.1, 0.3, 1, 3, 10.
# (§2) Dimethylsulfoxide (DMSO) was used as vehicle for the test compounds and Reserpine. Reserpine was dissolved in DMSO in a concentration of 3 mg/ml. A 10% (w/v) Cyclodextrin solution was used as vehicle for CGS-21680. CGS 21680 was dissolved in 10% (w/v) Cyclodextrine in a concentration of 2 mg/ml.
# Caffeine was used as a reference compound in the CGS-21680 induced catalepsy model. A caffeine solution was prepared with water for injection purposes to a concentration of 30 mg/ml. The solution was administered intraperitoneally in a volume of 1 ml/kg (30 mg/kg) 30 minutes before the beginning of testing and after CGS-21680 pre-treatment (1 hour prior to testing).
# The catalepsy bar after CGS-21680 administration was measured (CAT) as follows: The rat was placed with its forepaws on a log of wood. […] If the animal descended faster than 1 second, the trial was regarded as invalid. If more than 20 trials were rated as invalid, the values of all uncompleted trials were noted as 0. The animal was tested until five trials had been completed and the time for each trial was noted. Only the values of the last three trials were used for the analysis. The following parameters were calculated: maximum time to descend (s) and median time to descend (s).
# Behavioural observation (BO) included the measurement of the body tone, inclined plane and grip strength.
# The rat is taken in the hand of the observer and the animal's body tone is rated as normal, soft or hard. The rating is performed immediately after taking the animal from its home cage before performance of catalepsy testing. The following parameters were calculated: mean occurrence of hard body tone and mean occurrence of soft body tone.
# The rat is horizontally placed to an inclined plane for a maximum time of 30 seconds. Time to reach bottom or top is measured. […] The test is performed after catalepsy testing. Time to leave the inclined plane(s) was measured.
# The rat is put on a grip and the observer pulls the animal back on his tail. The strength (fore paws and hind paws) by which it holds on the grid is scored as grasping and pulling, grasping without pulling or no grasping. The test is performed after the inclined plane test. The following parameters were calculated: mean score of fore paw grip strength and mean score of hind paw grip strength.
# (§3) All statistical tests were performed two tailed with a value of p<0.05 considered as significant.
# (§4) To assess the effects of CGS-21680 and Reserpine pre-treatment compared to vehicle treated controls statistical comparisons between the test groups were performed using a U test statistic.
# To assess the effects of test compounds on CGS-21680 and Reserpine pre-treated animals correlation analyses including animals from test groups and the respective test compound-treated groups were performed. […]
# [2] = system: Reserpine induced catalepsy; test: Acute Reserpine induced catalepsy test; type: in vivo, rat; conditions: for effect on catalepsy time in acute Reserpine induced catalepsy model: i.p. in DMSO, 0.1-10 mg/kg; for maximum catalepsy values after Reserpine treatment / median catalepsy values after Reserpine treatment: vs only Reserpine-treated animals
# Procedure: as §1, §2
# Apomorphine was used as a reference compound in the Reserpine induced catalepsy model. Apomorphine injection solution was diluted with purified water to a concentration of 0.3 mg/ml. The solution was administered subcutaneously (s.c.) in a volume of 1 ml/kg (0.3 mg/kg) 20 minutes before the begin of testing after Reserpine pre-treatment (25 hours prior to testing).
# The catalepsy bar after Reserpine administration was measured (CAT) as follows: The rat was placed with its forepaws on a log of wood. […] The animal was tested for three trials and the time for each trial was noted. The following parameters were calculated: maximum time to descend (s) and median time to descend (s). […]
# as §3, §4
# To assess the effects of test compounds on CGS-21680 and Reserpine pre-treated animals correlation analyses including animals from test groups and the respective test compound-treated groups were performed.
# Additionally, parametric and non-parametric comparisons for the median catalepsy measure were performed to assess the reliability of the method. In case of parametric testing a GLM analyses was performed including animals from a control group (only vehicle treated animals) and the respective test compound-treated groups with dose as a categorical factor. In case of a significant result, a Dunnett's post hoc test was performed between the according test compound groups and a control group as reference group. In case of non-parametric testing a Kruskal-Wallis H-test was performed including animals from a control group and the respective test compound groups. In case of a significant result single U-test comparisons were performed between a control group and the groups treated with different doses of the test compound.
# [3] = vs only CGS-21680-treated animals
Compound,effect on catalepsy time in acute CGS-21680 induced catalepsy model [1],any other parameter measured after CGS-21680 treatment ([1]; parameters other than body tone),"hard body tone after CGS-21680 treatment [1, 3]","soft body tone after CGS-21680 treatment [1, 3]",effect on catalepsy time in acute Reserpine induced catalepsy model [2],maximum catalepsy values after Reserpine treatment [2],median catalepsy values after Reserpine treatment [2],"grip strength after CGS-21680 treatment [1, 3]","maximum catalepsy values after CGS-21680 treatment [1, 3]","median catalepsy values after CGS-21680 treatment [1, 3]"
"C#CCn1c(=O)c2c(nc(C#Cc3ccc(OC)c(OC)c3)n2C)n(CCCO)c1=O [test compound 2, 3-(3-hydroxypropyl)-8-(3,4-dimethoxyphenylethynyl)-7-methyl-1-prop-2-ynyl-3,7-dihydropurine-2,6-dione]",reduced catalepsy time; also recorded: reduction of catalepsy time; also recorded: significant effects,no significant effects,significantly increased,decreased,reduced catalepsy time; also recorded: significant reduction of catalepsy time,significantly decreased,significantly decreased,,,
"C#CCn1c(=O)c2c(nc(C#Cc3ccc(OC)c(OC)c3)n2C)n(CC)c1=O [test compound 1, 3-ethyl-8-(3,4-dimethoxyphenylethynyl)-7-methyl-1-prop-2-ynyl-3,7-dihydropurine-2,6-dione]",significantly reduced catalepsy time; also recorded: significant reduction of catalepsy time; also recorded: significant effects,,significantly increased,decreased,significantly reduced catalepsy time; also recorded: significant reduction of catalepsy time,only weakly reduced,significantly reduced,higher amount of grip strength,decreased,decreased
